Test results from patent US20080167385A1 (priority 2004, published 2008).
“Also recorded” adds a separate entry of the source.

Tests used:
[1] = target: T1, PCNA (Homo sapiens, UniProt P12004); details: cited from earlier work
T1 construct: made in house; host or cells: Escherichia coli BL21(DE3), pT7-PCNA

[2] = target: T2, CDK4/cyclin D1 (Homo sapiens, UniProt P11802+P24385); test: CDK4/cyclin D1 kinase assay (in vitro pRb phosphorylation); type: biochemical
T2 construct: His6 (N); made in house; host or cells: CDK4: Sf9 insect cells (baculovirus); GST-pRb: E. coli BL21(DE3)
Procedure: For the 96-well format in vitro kinase assay GST-pRb was used immobilized on glutathione-Sepharose beads.
CDK4/cyclin D1 kinase assay: The reaction mixture consisted of 1 μM of CDK4 and cyclin D1, 5 μg GST-pRb, 100 mM ATP and 0.2 μCi ^32P-ATP. The kinase reaction was carried out for 10 min at 30° C., the reaction was stopped with the addition of sample buffer and after heating the sample was resolved on 10% SDS-PAGE. The aouthoradiography images were scanned and quantified using QuickScan software. The IC50 values were determined using GraFit software.

[3] = target: T2, CDK4/cyclin D1; details: background; cited from earlier work
[4] = system: PCNA-dependent DNA replication; details: cited from earlier work

T2 sequence (P11802 whole entry): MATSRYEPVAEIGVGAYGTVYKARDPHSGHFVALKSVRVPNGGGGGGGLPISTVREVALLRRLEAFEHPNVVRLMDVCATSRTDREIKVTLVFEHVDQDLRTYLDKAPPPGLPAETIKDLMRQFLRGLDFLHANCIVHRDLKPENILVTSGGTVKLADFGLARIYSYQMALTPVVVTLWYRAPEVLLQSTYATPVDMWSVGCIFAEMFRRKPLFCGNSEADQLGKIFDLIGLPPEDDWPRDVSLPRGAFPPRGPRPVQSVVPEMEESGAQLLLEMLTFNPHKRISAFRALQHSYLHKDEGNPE
T2 sequence (P24385 whole entry): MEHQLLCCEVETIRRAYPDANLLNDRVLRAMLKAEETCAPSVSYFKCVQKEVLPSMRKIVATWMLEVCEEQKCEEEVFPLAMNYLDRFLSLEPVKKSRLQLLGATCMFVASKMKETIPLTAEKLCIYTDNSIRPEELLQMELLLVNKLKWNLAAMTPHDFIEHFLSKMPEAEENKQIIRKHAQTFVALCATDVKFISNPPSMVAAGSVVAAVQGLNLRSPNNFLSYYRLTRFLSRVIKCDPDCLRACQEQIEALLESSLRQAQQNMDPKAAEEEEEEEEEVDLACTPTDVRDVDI
T1 sequence (P12004 whole entry): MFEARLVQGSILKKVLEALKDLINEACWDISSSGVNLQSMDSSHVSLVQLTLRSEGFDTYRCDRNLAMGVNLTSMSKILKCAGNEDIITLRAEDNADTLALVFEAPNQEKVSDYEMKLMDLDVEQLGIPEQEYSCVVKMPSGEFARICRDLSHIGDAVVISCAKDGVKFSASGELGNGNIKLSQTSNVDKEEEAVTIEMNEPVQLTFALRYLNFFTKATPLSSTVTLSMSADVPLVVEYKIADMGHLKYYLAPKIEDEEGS

Substance | Ka of binding to PCNA ([1]; isothermal calorimetry) | CDK/cyclin inhibitory activity [2] | inhibition of CDK function [3] | affinity for PCNA (in words) [1] | enthalpy of binding to PCNA ([1]; isothermal calorimetry) [kcal/mol] | entropic contribution to PCNA binding ([1]; isothermal calorimetry) [cal mol^−1 ° C.^−1] | Kd ([1]; read-out: Kd of binding to PCNA) [nM] | inhibition of DNA replication in vitro (in words) [4]
p21D149A: site point mutant p21(141-160)D149A (KRRQTSMTAFYHSKRRLIFS; UniProt P38936 141-160, looked up, variant D149A) [reference compound] | 7.8×10^5 | – | – | – | – | – | – | –
SAVLQKKITDYFHPKK [CM peptide, hybrid containing 12 residues from the C-terminus of Pogo, flanked by 4 residues from DNA ligase I] | – | devoid of CDK/cyclin inhibitory activity; also recorded: does not inhibit CDK function | unable to inhibit CDK function | nanomolar affinity; also recorded: affinity very similar to that of the p21(141-160) peptide | -9.52 | 0.61 | 100 | potency very similar to that of p21(141-160); also recorded: efficient inhibitor
